Like-named read-outs stand apart in the source and are kept apart here.
Biological target: T1, human GnRH receptor (Homo sapiens, UniProt P30968)
T1 construct: The cDNA for the human GnRH receptor is cloned into the plasmid expression vector, pcDNA 3; expressed in transfected cells; host or cells: HEK 293 cells, stably transfected (pcDNA 3); membrane preparation
T1 sequence (P30968 1-328): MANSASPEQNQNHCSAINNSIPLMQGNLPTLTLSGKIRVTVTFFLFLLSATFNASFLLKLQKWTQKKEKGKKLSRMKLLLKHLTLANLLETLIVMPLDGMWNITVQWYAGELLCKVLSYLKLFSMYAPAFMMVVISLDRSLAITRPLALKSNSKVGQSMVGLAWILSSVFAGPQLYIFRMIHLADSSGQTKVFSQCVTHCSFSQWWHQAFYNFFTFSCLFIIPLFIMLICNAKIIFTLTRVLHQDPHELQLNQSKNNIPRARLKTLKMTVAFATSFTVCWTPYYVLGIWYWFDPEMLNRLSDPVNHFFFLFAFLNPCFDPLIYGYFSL
Experiment: GnRH receptor competitive radioligand binding assay (125I-GnRH-A, HEK 293 cell membranes)
Settings: compound at 10 μM
Description: The cDNA for the human GnRH receptor is cloned into the plasmid expression vector, pcDNA 3 (In Vitrogen), and stably transfected in HEK 293 cells (a cell line developed by Dr. Stuart Sealfon, Mount Sinai Medical School, New York, N.Y.).
The human GnRH receptor (hGnRH) is cloned into pcDNA 3 (In Vitrogen), which provides high-level expression and a neomycin resistance marker. Lipofectamine (GIBCO BRL) is used to transfect HEK 293 cells with plasmid DNA. This method involves mixing the plasmid and reagent in serum-free medium, allowing DNA-liposome complexes to form, and overlaying cells with this solution. The HEK 293 cells are plated (seeded) on a 10-cm tissue culture dish at a density of 3×10^6 cells/dish the day before transfection. For each plate, 8 μg DNA plus 0.8 mL serum-free medium is mixed with 48 μL lipofectamine plus 0.8 mL serum-free medium, followed by incubation for 30 minutes at room temperature to allow DNA-liposome complexes to form. Serum-free medium is added to give a final volume of 6 mL/plate. The cells are rinsed twice with serum-free medium and overlayed with the DNA-liposome mixture. Five hours after transfection, an equal volume (6 mL) of medium containing 20% FBS (fetal bovine serum) is added. The cells are fed with fresh complete medium 18-24 hours after transfection. The cells are split 72 hours following transfection, at densities of 1:10 and 1:20. Stable tranformants are selected for by growth of the cells in antibiotic containing medium (G418, Sigma Chemical Company (also known as Geneticin)). Colonies are isolated and tested for receptor expression by radioligand binding and by measuring phosphoinositol turnover.
HEK 293 cells stably transfected with human GnRH receptors as described above are grown in MEM (minimal essential medium, available from Sigma Chemical Company) supplemented with 0.1% G418 (Sigma Chemical Company). Cells are homogenized in buffer A containing 50 mM Tris (pH 74.), 0.32M sucrose, 2 mM ethyleneglycol-bis(β-aminoethyl)-N,N,N′,N′-tetraacetic acid (EGTA), 1 mM phenylmethylsulfonyl fluoride (PMSF), 5 μg/mL aprotinen, 5 μg/mL Pepstatin A, and 1 μg/mL leupeptin. The homogenized cells are centrifuged at 4° C. at 20,000×g for 25 minutes, resuspended in buffer A, and recentrifuged at 4° C. at 20,000×g for an additional 25 minutes. Total membrane protein is determined with a BCA kit (Pierce, Rockford, Ill.). Membranes are stored at −70° C. at a final membrane protein concentration of 5 mg/mL.
The radioiodinated agonist analog of GnRH, [des-Gly^10, D-Ala^8]GnRH ethylamide (GnRH-A), is used as the labeled ligand. One μg of GnRH-A diluted in 0.1M acetic acid is added to an lodogen®-coated borosilicate glass tube pierce) containing 35 μL of 0.05M phosphate buffer (pH 7.4-7.6) and 1 mCi of Na[^125I]. The reaction mixture is vortexed and incubated for 1 minute at room temperature. After one minute, the mixture is vortexed again and allowed to incubate for an additional minute. Two mL of 0.5M acetic acid/1% BSA is added to the reaction tube, and the mixture is added to a C18 Sep-Pak cartridge. The cartridge is washed with subsequent washes of 5 mL H2O and 5 mL 0.5M acetic acid, and then eluted with 5×1 mL of 60% CH3CN/40% 0.5M acetic acid. The eluant is diluted with 3×volume of HPLC buffer A (0.1% TFA in H2O) and loaded onto a C18 column. The iodinated product is eluted over 20-25 minutes with a gradient of 25-100% CH3CN containing 0.1% TFA. The radioactive fractions (750 μL/fraction) are collected into clean polypropylene tubes containing 10 μL of 10% BSA. Fractions are assessed for biological activity by radioligand binding. Active fractions are utilized to screen the compounds for competitive binding assays.
HEK 293 cell membranes stably expressing hGnRHR (human GnRH receptors) are diluted to 0.5-1.0 mg/mL with assay buffer containing 50 mM HEPES (pH 7.4), 1 mM ethylenediarninetetraacetic acid (EDTA), 2.5 mM MgCl2, and 0.1% BSA. […]

[1] = average of 1st and 2nd test, read-out: Average % Remaining (percent of specific binding remaining)
[2] = crude compounds, 125I-GnRH-A, lower value = higher inhibition, read-out: % Remaining 1st Test (percent of specific binding remaining)
[3] = crude compounds, 125I-GnRH-A, lower value = higher inhibition, read-out: % Remaining 2nd Test (percent of specific binding remaining)

CC(C)(C)c1ccc(CN(Cc2ccc(CNC(=N)N)cc2)C(=O)c2cccc3ccccc23)cc1 [Compound 1]
remaining activity at 10 µM [1]: 57%
remaining activity at 10 µM [2]: 57%
remaining activity at 10 µM [3]: 57%

CC(C)(C)c1ccc(CN(Cc2ccc(CNC(=N)N)cc2)C(=O)c2ccccc2)cc1 [Compound 2]
remaining activity at 10 µM [1]: 57%
remaining activity at 10 µM [2]: 59%
remaining activity at 10 µM [3]: 54%

CN(C)CCCOc1ccc(CN(Cc2ccc(CNC(=N)N)cc2)C(=O)c2ccc3ccccc3c2)cc1 [Compound 3]
remaining activity at 10 µM [1]: 55%
remaining activity at 10 µM [2]: 58%
remaining activity at 10 µM [3]: 57%

N=C(N)NCc1ccc(CN(CC23CC=CCC2C2CC=CCC2O3)C(=O)c2cccc3ccccc23)cc1 (stereo not drawn) [Compound 4]
remaining activity at 10 µM [1]: 40%
remaining activity at 10 µM [2]: 40%
remaining activity at 10 µM [3]: 40%

N=C(N)NCc1ccc(CN(CC23CC=CCC2C2CC=CCC2O3)C(=O)c2ccc3ccccc3c2)cc1 (stereo not drawn) [Compound 5]
remaining activity at 10 µM [1]: 37%
remaining activity at 10 µM [2]: 31%
remaining activity at 10 µM [3]: 33%

N=C(N)NCc1ccc(CN(CC23CC=CCC2C2CC=CCC2O3)C(=O)c2cccs2)cc1 (stereo not drawn) [Compound 6]
remaining activity at 10 µM [1]: 46%
remaining activity at 10 µM [2]: 47%
remaining activity at 10 µM [3]: 45%

N=C(N)NCc1ccc(CN(CC23CC=CCC2C2CC=CCC2O3)C(=O)c2ccco2)cc1 (stereo not drawn) [Compound 7]
remaining activity at 10 µM [1]: 53%
remaining activity at 10 µM [2]: 51%
remaining activity at 10 µM [3]: 55%

N=C(N)NCc1ccc(CN(CC23CC=CCC2C2CC=CCC2O3)C(=O)c2ccccc2)cc1 (stereo not drawn) [Compound 8]
remaining activity at 10 µM [1]: 45%
remaining activity at 10 µM [2]: 42%
remaining activity at 10 µM [3]: 48%

N=C(N)NCc1ccc(CN(CC23CC=CCC2C2CC=CCC2O3)C(=O)c2ccc(Cl)nc2)cc1 (stereo not drawn) [Compound 9]
remaining activity at 10 µM [1]: 52%
remaining activity at 10 µM [2]: 51%
remaining activity at 10 µM [3]: 53%

Cc1cc2c(cc1CN(Cc1ccc(CNC(=N)N)cc1)C(=O)C1CCCCC1)C(C)(C)CCC2(C)C [Compound 10]
remaining activity at 10 µM [1]: 53%
remaining activity at 10 µM [2]: 51%
remaining activity at 10 µM [3]: 54%

Cc1cc2c(cc1CN(Cc1ccc(CNC(=N)N)cc1)C(=O)c1cccc3ccccc13)C(C)(C)CCC2(C)C [Compound 11]
remaining activity at 10 µM [1]: 53%
remaining activity at 10 µM [2]: 55%
remaining activity at 10 µM [3]: 50%

Cc1cc2c(cc1CN(Cc1ccc(CNC(=N)N)cc1)C(=O)c1ccco1)C(C)(C)CCC2(C)C [Compound 13]
remaining activity at 10 µM [1]: 13%
remaining activity at 10 µM [2]: 14%
remaining activity at 10 µM [3]: 11%

Cc1cc2c(cc1CN(Cc1ccc(CNC(=N)N)cc1)C(=O)c1ccccc1)C(C)(C)CCC2(C)C [Compound 14]
remaining activity at 10 µM [1]: 55%
remaining activity at 10 µM [2]: 56%
remaining activity at 10 µM [3]: 54%

CC(=O)N(Cc1ccc(CNC(=N)N)cc1)Cc1cc2c(cc1C)C(C)(C)CCC2(C)C [Compound 15]
remaining activity at 10 µM [1]: 59%
remaining activity at 10 µM [2]: 58%
remaining activity at 10 µM [3]: 60%

Cc1cc2c(cc1CN(Cc1ccc(CNC(=N)N)cc1)C(=O)c1ccc(Cl)nc1)C(C)(C)CCC2(C)C [Compound 16]
remaining activity at 10 µM [1]: 49%
remaining activity at 10 µM [2]: 50%
remaining activity at 10 µM [3]: 47%

N=C(N)NCc1ccc(CN(Cc2ccc(OCc3ccccc3)c(OCc3ccccc3)c2)C(=O)c2ccccc2)cc1 [Compound 19]
remaining activity at 10 µM [1]: 45%
remaining activity at 10 µM [2]: 47%
remaining activity at 10 µM [3]: 42%

N=C(N)NCc1ccc(CN(Cc2ccc(OCc3ccccc3)c(OCc3ccccc3)c2)C(=O)c2ccc(Cl)nc2)cc1 [Compound 20]
remaining activity at 10 µM [1]: 57%
remaining activity at 10 µM [2]: 60%
remaining activity at 10 µM [3]: 54%

CC(=O)N(Cc1ccc(CNC(=N)N)cc1)Cc1ccc(OCc2ccccc2)c(OCc2ccccc2)c1 [Compound 21]
remaining activity at 10 µM [1]: 49%
remaining activity at 10 µM [2]: 46%
remaining activity at 10 µM [3]: 51%

CCOc1cc(OCC)c(OCC)cc1CN(Cc1ccc(CNC(=N)N)cc1)C(=O)c1ccco1 [Compound 22]
remaining activity at 10 µM [1]: 55%
remaining activity at 10 µM [2]: 52%
remaining activity at 10 µM [3]: 57%

CC(C)(C)c1ccc(CN(CCCCNC(=N)N)C(=O)c2cccc3ccccc23)cc1 [Compound 23]
remaining activity at 10 µM [1]: 49%
remaining activity at 10 µM [2]: 48%
remaining activity at 10 µM [3]: 50%

CC(C)(C)c1ccc(CN(CCCCNC(=N)N)C(=O)c2ccc3ccccc3c2)cc1 [Compound 24]
remaining activity at 10 µM [1]: 56%
remaining activity at 10 µM [2]: 58%
remaining activity at 10 µM [3]: 58%

N=C(N)NCCCCN(CC12CC=CCC1C1CC=CCC1O2)C(=O)c1cccc2ccccc12 (stereo not drawn) [Compound 25]
remaining activity at 10 µM [1]: 46%
remaining activity at 10 µM [2]: 41%
remaining activity at 10 µM [3]: 51%

N=C(N)NCCCCN(CC12CC=CCC1C1CC=CCC1O2)C(=O)c1ccc2ccccc2c1 (stereo not drawn) [Compound 26]
remaining activity at 10 µM [1]: 36%
remaining activity at 10 µM [2]: 35%
remaining activity at 10 µM [3]: 37%

Cc1cc2c(cc1CN(CCCCNC(=N)N)C(=O)C1CCCCC1)C(C)(C)CCC2(C)C [Compound 27]
remaining activity at 10 µM [1]: 59%
remaining activity at 10 µM [2]: 56%
remaining activity at 10 µM [3]: 62%

Cc1cc2c(cc1CN(CCCCNC(=N)N)C(=O)c1cccc3ccccc13)C(C)(C)CCC2(C)C [Compound 28]
remaining activity at 10 µM [1]: 52%
remaining activity at 10 µM [2]: 46%
remaining activity at 10 µM [3]: 57%

Cc1cc2c(cc1CN(CCCCNC(=N)N)C(=O)c1ccc3ccccc3c1)C(C)(C)CCC2(C)C [Compound 29]
remaining activity at 10 µM [1]: 57%
remaining activity at 10 µM [2]: 53%
remaining activity at 10 µM [3]: 61%

Cc1cc2c(cc1CN(CCCCNC(=N)N)C(=O)c1ccco1)C(C)(C)CCC2(C)C [Compound 30]
remaining activity at 10 µM [1]: 33%
remaining activity at 10 µM [2]: 29%
remaining activity at 10 µM [3]: 37%

Cc1cc2c(cc1CN(CCCCNC(=N)N)C(=O)c1ccccc1)C(C)(C)CCC2(C)C [Compound 31]
remaining activity at 10 µM [1]: 45%
remaining activity at 10 µM [2]: 44%
remaining activity at 10 µM [3]: 45%

Cc1cc2c(cc1CN(CCCCNC(=N)N)C(=O)c1ccc(Cl)nc1)C(C)(C)CCC2(C)C [Compound 32]
remaining activity at 10 µM [1]: 57%
remaining activity at 10 µM [2]: 52%
remaining activity at 10 µM [3]: 61%

N=C(N)NCCCCN(Cc1ccc(OCc2ccccc2)c(OCc2ccccc2)c1)C(=O)C1CCCCC1 [Compound 33]
remaining activity at 10 µM [1]: 59%
remaining activity at 10 µM [2]: 52%
remaining activity at 10 µM [3]: 65%
